Literature values, collected in US9949941B2, “GABA analog prodrug sustained release oral dosage forms” (XENOPORT, INC., priority 2004, dated 2018).

Tests used:
[1] = dosed either orally or directly into the colon of a mammal

SMILES | Tmax following administration of gabapentin alone (fasted and fed patients) [h] | typical Tmax of immediate release gabapentin (immediate release gabapentin) [h] | bioavailability as gabapentin [1]
NCC1(CC(=O)O)CCCCC1 [gabapentin] | 2 to 4 | 2 to 4 | –
CC(OC(=O)NCC1(CC(=O)O)CCCCC1)OC(=O)C(C)C (stereo not drawn) [Compound (1), 1-{[(α-isobutanoyloxyethoxy)carbonyl]aminomethyl}-1-cyclohexane acetic acid] | – | – | high bioavailability
